In brackets after ≈: the same amount, converted by molar mass. Several values for one entry are separate records, joined by “and”; a condition that tells them apart may be missing. Identical values can stand only once. Entries after “also recorded” stand apart in the source; their conditions may differ. Like-named read-outs stand apart in the source and are kept apart here.
What was measured:
LAMA-84 cells = assay: MTT cytotoxicity, LAMA-84; format: cell-based, human
Excerpt: (§1) To evaluate the anticancer potential of the studied E. spiculifolia extract, we employed a diverse panel of human cancer cell lines alongside a non-malignant control. The hematological models included LAMA-84, a chronic myeloid leukemia line harboring the Philadelphia chromosome [t(9;22)], and HL-60, an acute promyelocytic leukemia line characterized by the t(15;17) translocation. These suspension cultures allowed us to assess the effects on leukemic cells with distinct genetic drivers. In parallel, we investigated the antitumor activity of the plant extract against reproductive system-associated carcinomas, including breast carcinoma cells (MCF-7 and MDA-MB-231) and a cervical cancer cell line (CASKI). MCF-7 cells are hormone-responsive and widely used to model estrogen receptor-positive disease, whereas MDA-MB-231 cells are triple-negative, highly aggressive, and resistant to conventional anti-hormonal therapy. To further broaden the spectrum, we included CASKI, a cervical carcinoma line associated with HPV16 infection, thereby extending the analysis to virally driven epithelial cancer. In addition, normal murine fibroblast cells (CCL-1) were used as a non-malignant comparator, enabling an assessment of selectivity between normal and malignant cells. The presence and degree of tumor selectivity was assessed by calculating the correspondent selectivity indices (SI, selectivity index), defined as the ratio between the half-inhibitory concentrations of the extract in healthy and malignant cells (Table 2).
(§2) The antiproliferative activity of the extract, gallic, oleanolic, and protocatechuic acids was screened against human malignant cell lines of hematological (LAMA-84, HL-60) and epithelial (MDA-MB-231, MCF-7, CASKI) origin, as well as normal murine fibroblast cells (CCL-1). All cell lines were purchased from the German Collection of Microorganisms and Cell Cultures (DSMZ GmbH, Braunschweig, Germany). Cell cultures were cultivated in a growth medium RPMI 1640 supplemented with 10% fetal bovine serum (FBS), 5% L-glutamine, and incubated under standard conditions of 37 °C and 5% humidified CO2 atmosphere.
(§3) The cytotoxic potential of the E. spiculifolia extract was studied using a validated method for assessing cell viability known as the Mosmann MTT test. The assay is colorimetric and measures the activity of mitochondrial enzymes, reducing the yellow dye MTT (3-(4,5-dimethylthiazol-2-yl)-2,5-diphenyltetrazolium bromide) to violet formazan crystals. According to protocol, exponential-phased cells were harvested and seeded (100 μL/well) in 96-well plates at the appropriate density. Following a 24 h incubation, cells were treated with serial dilutions of the extract in the concentration range 1000–31.3 μg/mL. Following a 72 h exposure, filter sterilized MTT substrate solution (5 mg/mL in PBS) was added to each well of the culture plate. A further 4h incubation allowed the reduction of the yellow MTT reagent into purple formazan crystals in metabolically active viable cells, which were dissolved in an isopropyl alcohol solution containing 5% formic acid prior to absorbance measurement at 550 nm. Untreated cells (100% cell viability) were used as negative control. Cisplatin was used as positive control.
(§4) Collected absorbance values were blanked against MTT and isopropanol solution and normalized to the mean value of untreated control (100% cell viability). The obtained data were fitted to “concentration-effect” curves and analyzed by means of non-linear regression in the GraphPad Prism 8.0 software. Statistical analyses were performed using one-way analysis of variance (ANOVA) to assess differences among experimental groups. Where significant differences were detected, post hoc comparisons were conducted using Tukey’s test.

HL-60 cells = assay: MTT cytotoxicity, HL-60; format: cell-based, human
Excerpt: as §1, §2, §3, §4

MDA-MB-231 cells = assay: MTT cytotoxicity, MDA-MB-231; format: cell-based, human
Excerpt: as §1, §2, §3, §4

MCF-7 cells = assay: MTT cytotoxicity, MCF-7; format: cell-based, human
Excerpt: as §1, §2, §3, §4

CASKI cells = assay: MTT cytotoxicity, CASKI; format: cell-based, human
Excerpt: as §1, §2, §3, §4

[1] = test system: CCL-1 normal murine fibroblast cells; assay: MTT cytotoxicity, normal fibroblasts CCL-1; format: cell-based
Excerpt: as §1, §2
as §3, with “Following a 72 h exposure, filter sterilized MTT substrate solution (5 mg/mL in PBS) was added to each well of the culture plate.” left out, “Untreated cells (100% cell viability) were used as negative control. Cisplatin was used as positive control.” left out
Collected absorbance values were blanked against MTT and isopropanol solution and normalized to the mean value of untreated control (100% cell viability). The obtained data were fitted to “concentration-effect” curves and analyzed by means of non-linear regression in the GraphPad Prism 8.0 software. […] Where significant differences were detected, post hoc comparisons were conducted using Tukey’s test.

[2] = test system: cancer versus normal cell models; parameters: method as in PMID 36297448, doi:10.13005/bpj/3133, PMID 37108571; conditions: depending on the cancer versus normal cell models applied; cited from earlier work
[3] = test system: hepatocellular carcinoma HuH7 cells; parameters: method as in PMID 20415421; conditions: cited from earlier work
HCT116 = test system: HCT116; parameters: method as in PMID 30928277; conditions: cited from earlier work
SW480 = test system: SW480; parameters: method as in PMID 30928277; conditions: cited from earlier work
[4] = test system: triple-negative MDA-MB-231 breast cancer cells; parameters: method as in doi:10.3724/SP.J.1145.2010.00202; conditions: cited from earlier work
[5] = Homo sapiens, LAMA-84, MTT, 72 h exposure, bcr-abl+ chronic myeloid leukemia, read-out: IC50 LAMA-84 (converted)
[6] = Homo sapiens, LAMA-84, MTT, 72 h exposure, molar equivalent in brackets, read-out: IC50 LAMA-84 (converted)
[7] = Homo sapiens, HL-60, MTT, 72 h exposure, promyelocytic leukemia, read-out: IC50 HL-60 (converted)
[8] = Homo sapiens, MDA-MB-231, MTT, 72 h exposure, triple-negative breast carcinoma, read-out: IC50 MDA-MB-231 (converted)
[9] = Homo sapiens, MCF7, MTT, 72 h exposure, hormone-responsive breast carcinoma, read-out: IC50 MCF-7 (converted)
[10] = Homo sapiens, Ca-Ski, MTT, 72 h exposure, cervical cancer, read-out: IC50 CASKI (converted)
[11] = Mus musculus, MTT, 72 h exposure, normal murine fibroblast cells, read-out: IC50 CCL-1 (converted)
[12] = 72 h, concentrations up to 500 μg/mL

O=C(O)c1ccc(O)c(O)c1 [protocatechuic acid]
IC50 (LAMA-84 cells; Homo sapiens, LAMA-84, 72 h, read-out: IC50 LAMA-84): > 500 µg/mL and > 3.24 mM
IC50 (HL-60 cells; Homo sapiens, HL-60, 72 h, read-out: IC50 HL-60): > 500 µg/mL
IC50 (MDA-MB-231 cells; Homo sapiens, MDA-MB-231, 72 h, read-out: IC50 MDA-MB-231): 311 µg/mL
IC50 (MCF-7 cells; Homo sapiens, MCF7, 72 h, read-out: IC50 MCF-7): > 500 µg/mL
IC50 (CASKI cells; Homo sapiens, Ca-Ski, 72 h, read-out: IC50 CASKI): > 500 µg/mL
IC50 ([1]; Mus musculus, Fibroblast, 72 h, read-out: IC50 CCL-1): > 500 µg/mL

O=C(O)c1cc(O)c(O)c(O)c1 [gallic acid]
IC50 (LAMA-84 cells; [5]): 6.2 µg/mL
IC50 (LAMA-84 cells; [6]): 36.4 µM
IC50 (HL-60 cells; [7]): > 500 µg/mL
IC50 (MDA-MB-231 cells; [8]): > 500 µg/mL
IC50 (MCF-7 cells; [9]): > 500 µg/mL
cytotoxicity against CASKI (in words) (CASKI cells; 72 h exposure): inactive
IC50 (CASKI cells; [10]): > 500 µg/mL
IC50 [1, 11]: > 500 µg/mL

COc1cccc2c1C(=O)c1c(O)c3c(c(O)c1C2=O)C[C@@](O)(C(=O)CO)C[C@@H]3O[C@H]1C[C@H](N)[C@H](O)[C@H](C)O1 [doxorubicin]
SI values typically reported [2]: 1–40

C[C@H]1[C@H](C)CC[C@]2(C(=O)O)CC[C@]3(C)C(=CC[C@@H]4[C@@]5(C)CC[C@H](O)C(C)(C)[C@@H]5CC[C@]43C)[C@H]12 [ursolic acid]
IC50 [3]: 75 µM
IC50 (HCT116): 13 µM
IC50 (SW480): 10.2 µM

N.N.[Cl][Pt][Cl] [cisplatin, reference compound]
IC50 LAMA-84 (LAMA-84 cells; MTT, 72 h exposure, bcr-abl+ chronic myeloid leukemia): 11.4 ± 0.99 µg/mL
IC50 (LAMA-84 cells; MTT, 72 h exposure, molar equivalent in brackets, read-out: IC50 LAMA-84 (converted)): 37.8 µM
SI LAMA-84 (LAMA-84 cells; selectivity index = IC50 in CCL-1 / IC50 in LAMA-84): <1
IC50 (HL-60 cells; MTT, 72 h exposure, molar equivalent in brackets, read-out: IC50 HL-60 (converted)): 8.9 µM
IC50 HL-60 (HL-60 cells; MTT, 72 h exposure, promyelocytic leukemia): 2.7 ± 0.4 µg/mL
SI HL-60 (HL-60 cells; selectivity index = IC50 in CCL-1 / IC50 in HL-60): 2.1
IC50 (MDA-MB-231 cells; MTT, 72 h exposure, molar equivalent in brackets, read-out: IC50 MDA-MB-231 (converted)): 57.1 µM
IC50 MDA-MB-231 (MDA-MB-231 cells; MTT, 72 h exposure, triple-negative breast carcinoma): 17.2 ± 1.3 µg/mL
SI MDA-MB-231 (MDA-MB-231 cells; selectivity index = IC50 in CCL-1 / IC50 in MDA-MB-231): <1
IC50 MCF-7 (MCF-7 cells; MTT, 72 h exposure, hormone-responsive breast carcinoma): 15.5 ± 1.7 µg/mL
IC50 (MCF-7 cells; MTT, 72 h exposure, molar equivalent in brackets, read-out: IC50 MCF-7 (converted)): 51.6 µM
SI MCF-7 (MCF-7 cells; selectivity index = IC50 in CCL-1 / IC50 in MCF-7): <1
IC50 CASKI (CASKI cells; MTT, 72 h exposure, cervical cancer): 14.6 ± 1.9 µg/mL
IC50 (CASKI cells; MTT, 72 h exposure, molar equivalent in brackets, read-out: IC50 CASKI (converted)): 48.6 µM
SI CASKI (CASKI cells; selectivity index = IC50 in CCL-1 / IC50 in CASKI): <1
IC50 ([1]; MTT, 72 h exposure, molar equivalent in brackets, read-out: IC50 CCL-1 (converted)): 18.7 µM
IC50 CCL-1 ([1]; MTT, 72 h exposure, normal murine fibroblast cells): 5.6 ± 0.7 µg/mL
SI values typically reported [2]: 1–40

CC1(C)CC[C@]2(C(=O)O)CC[C@]3(C)C(=CC[C@@H]4[C@@]5(C)CC[C@H](O)C(C)(C)[C@@H]5CC[C@]43C)[C@@H]2C1 [oleanolic acid]
IC50 (LAMA-84 cells; [5]): 1.7 µg/mL
IC50 (LAMA-84 cells; [6]): 3.7 µM
IC50 (HL-60 cells; [7]): > 500 µg/mL
cytotoxicity against MDA-MB-231 (in words) (MDA-MB-231 cells; [12]): inactive; also recorded: did not exert cytotoxic effects
IC50 (MDA-MB-231 cells; [8]): > 500 µg/mL
cytotoxicity against MCF-7 (in words) (MCF-7 cells; [12]): inactive; also recorded: did not exert cytotoxic effects
IC50 (MCF-7 cells; [9]): > 500 µg/mL
cytotoxicity against CASKI (in words) (CASKI cells; 72 h exposure): inactive
IC50 (CASKI cells; [10]): > 500 µg/mL
IC50 [1, 11]: > 500 µg/mL
IC50 [3]: 100 µM
IC50 MDA-MB-231 (previous studies) [4]: 38.8 µg/mL (≈ 85 µM)

From publication PMC12526400, “Insight into Cytotoxic Potential of Erica spiculifolia Salisb (Balkan Heath)” (Plants, 2025)
